Assay results: paper PMC6270595, “Synthesis and Cytotoxicity of Novel 10-Substituted Dihydroartemisinin Derivatives Containing N-Arylphenyl-ethenesulfonamide Groups” (Molecules, 2013)

Tests used:
[1] = system: MDA-MB-231 (human breast cancer); assay: MTT cytotoxicity assay, MDA-MB-231; type: cell-based; settings: Homo sapiens, MDA-MB-231 cells, 50% cell growth inhibition after 72 h of drug exposure
Experimental: (§1) The cytotoxic activities of target compounds were evaluated against HT-29 (human colon cancer), MDA-MB-231 (human breast cancer), U87MG (human glioblastoma), H460 (human lung cancer), A549 (non-small-cell lung adenocarcinoma), HL-60 (human leukemic) cancer cell lines and one normal cell line WI-38 (human fetal lung fibroblasts) together with references DHA and cisplatin by a MTT assay.
(§2) The cytotoxic activities of compounds 3a–h and 6a–j were evaluated with the HT-29, MDA-MB-231, U87MG, H460, A549, HL-60 cancer cell lines and one normal cell line, WI-38, by the standard MTT assay in vitro [20], with DHA as the positive control. The cell lines were cultured in minimum essential medium (MEM) supplement with 10% fetal bovine serum (FBS). Approximately 4 × 10^3 cells, suspended in MEM medium, were plated on to each well of a 96-well plate and incubated in 5% CO2 at 37 °C for 24 h. The test compounds at indicated final concentrations were added to the culture medium and the cell cultures were continued for 72 h. Fresh MTT was added to each well at a terminal concentration of 5 μg/mL and incubated with cells at 37 °C for 4 h. The formazan crystals were dissolved in 100 μL DMSO each well, and the absorbency at 492 nm (for absorbance of MTT formazan) and 630 nm (for the reference wavelength) was measured with the ELISA reader. All of the compounds were tested twice in each of the cell lines. The results expressed as IC50 (inhibitory concentration 50%) were the averages of two determinations and calculated using the Bacus Laboratories Incorporated Slide Scanner (Bliss) software.

[2] = system: HT-29 (human colon cancer); assay: MTT cytotoxicity assay, HT-29; type: cell-based; settings: Homo sapiens, HT-29 cells, 50% cell growth inhibition after 72 h of drug exposure, read-out: IC50(μM) HT29
Experimental: as §1, §2

[3] = system: U87MG (human glioblastoma); assay: MTT cytotoxicity assay, U87MG; type: cell-based; settings: Homo sapiens, U-87 MG; U87MG cells, 50% cell growth inhibition after 72 h of drug exposure, MTT
Experimental: as §1, §2

H460 (human lung cancer) = assay: MTT cytotoxicity assay, H460; type: cell-based; settings: Homo sapiens, NCI-H460; H460 cells, 50% cell growth inhibition after 72 h of drug exposure, MTT
Experimental: as §1, §2

[4] = system: A549 (non-small-cell lung adenocarcinoma); assay: MTT cytotoxicity assay, A549; type: cell-based, human; settings: Homo sapiens, A549 cells, 50% cell growth inhibition after 72 h of drug exposure
Experimental: as §1, §2

HL-60 (human leukemic) = assay: MTT cytotoxicity assay, HL-60; type: cell-based; settings: Homo sapiens; HL-60 cells, 50% cell growth inhibition after 72 h of drug exposure, MTT
Experimental: as §1, §2

[5] = system: WI-38 (human fetal lung fibroblasts); assay: MTT cytotoxicity assay, normal cell line WI-38; type: cell-based; settings: Homo sapiens, normal WI-38 cells, 50% cell growth inhibition after 72 h of drug exposure, read-out: IC50(μM) WI38
Experimental: as §1, §2

Row | Compound | IC50 [1] [µM] | IC50 [2] [µM] | IC50 [3] [µM] | IC50 (H460 (human lung cancer)) [µM] | IC50 [4] [µM] | IC50 (HL-60 (human leukemic)) [µM] | IC50 [5] [µM] | melting point [°C]
1 | C[C@@H]1CC[C@H]2[C@@H](C)C(OCCNC(=O)c3ccc(COc4ccc(/C=C/S(=O)(=O)Nc5cccc(Cl)c5)cc4)cc3)O[C@@H]3O[C@@]4(C)CC[C@@H]1[C@]32OO4 (stereo partly drawn) [Compound 6b, (E)-N-(2-(10β-Dihydroartemisinoxy)ethyl)-4((4-(2-(N-(3-chlorophenyl)sulfamoyl)vinyl)phenoxy)methyl)benzamide] | 2.23 | 1.11 | 4.52 | 2.79 | 2.86 | 1.81 | 35.8 | 146 to 149
2 | C[C@@H]1CC[C@H]2[C@@H](C)C(OCCOc3ccc(/C=C/S(=O)(=O)Nc4c(Cl)cccc4Cl)cc3)O[C@@H]3O[C@@]4(C)CC[C@@H]1[C@]32OO4 (stereo partly drawn) [Compound 3h, (E)-2-(4-(2-(10β-Dihydroartemisinoxy)ethoxy)phenyl)-N-(2,6-dichlorophenyl)ethenesulfonamide] | 1.07 | 0.49 | 2.51 | 1.28 | 4.33 | 0.14 | 20.7 | 144 to 146
3 | C[C@@H]1CC[C@H]2[C@@H](C)C(OCCNC(=O)c3ccc(COc4ccc(/C=C/S(=O)(=O)Nc5ccc(Cl)cc5)cc4)cc3)O[C@@H]3O[C@@]4(C)CC[C@@H]1[C@]32OO4 (stereo partly drawn) [Compound 6f, (E)-N-(2-(10β-Dihydroartemisinoxy)ethyl)-4((4-(2-(N-(4-chlorophenyl)sulfamoyl)vinyl)phenoxy)methyl)benzamide] | 2.38 | 0.92 | 1.59 | 1.77 | 5.72 | 1.33 | 24.7 | 138 to 141
4 | Cc1ccc(F)c(NS(=O)(=O)/C=C/c2ccc(OCc3ccc(C(=O)NCCOC4O[C@@H]5O[C@@]6(C)CC[C@H]7[C@H](C)CC[C@@H]([C@H]4C)[C@@]57OO6)cc3)cc2)c1 (stereo partly drawn) [Compound 6d, (E)-N-(2-(10β-Dihydroartemisinoxy)ethyl)-4((4-(2-(N-(2-fluoro-5-methylphenyl)sulfamoyl)vinyl)phenoxy)methyl)benzamide] | 1.33 | 1.82 | 17.2 | 10.9 | 9.72 | 1.3 | 19.3 | 135 to 137
5 | Cc1ccc(F)c(NS(=O)(=O)/C=C/c2ccc(OCCOC3O[C@@H]4O[C@@]5(C)CC[C@H]6[C@H](C)CC[C@@H]([C@H]3C)[C@@]46OO5)cc2)c1 (stereo partly drawn) [Compound 3d, (E)-2-(4-(2-(10β-Dihydroartemisinoxy)ethoxy)phenyl)-N-(2-fluoro-5-methylphenyl)ethenesulfonamide] | 1.27 | 1.78 | 5.71 | 4.29 | 3.64 | 0.84 | 20.5 | 138 to 140
6 | C[C@@H]1CC[C@H]2[C@@H](C)C(OCCNC(=O)c3ccc(COc4ccc(/C=C/S(=O)(=O)Nc5c(Cl)cccc5Cl)cc4)cc3)O[C@@H]3O[C@@]4(C)CC[C@@H]1[C@]32OO4 (stereo partly drawn) [Compound 6h, (E)-N-(2-(10β-Dihydroartemisinoxy)ethyl)-4((4-(2-(N-(2,6-dichlorophenyl)sulfamoyl)vinyl)phenoxy)methyl)benzamide] | 0.88 | 0.44 | 3.12 | 1.21 | 2.34 | 0.18 | 23.5 | 151 to 153
7 | Cc1ccccc1NS(=O)(=O)/C=C/c1ccc(OCc2ccc(C(=O)NCCOC3O[C@@H]4O[C@@]5(C)CC[C@H]6[C@H](C)CC[C@@H]([C@H]3C)[C@@]46OO5)cc2)cc1 (stereo partly drawn) [Compound 6e, (E)-N-(2-(10β-Dihydroartemisinoxy)ethyl)-4((4-(2-(N-(2-methylphenyl)sulfamoyl)vinyl)phenoxy)methyl)benzamide] | 2.1 | 2.09 | 3.65 | 1.92 | 5.47 | 3.21 | 16.4 | 143 to 145
8 | C[C@@H]1CC[C@H]2[C@@H](C)C(OCCOc3ccc(/C=C/S(=O)(=O)Nc4ccc(Cl)cc4)cc3)O[C@@H]3O[C@@]4(C)CC[C@@H]1[C@]32OO4 (stereo partly drawn) [Compound 3f, (E)-2-(4-(2-(10β-Dihydroartemisinoxy)ethoxy)phenyl)-N-(4-chlorophenyl)ethenesulfonamide] | 1.04 | 0.42 | 0.79 | 1.41 | 3.52 | 0.08 | 19.9 | 138 to 141
9 | C[C@@H]1CC[C@H]2[C@@H](C)C(OCCNC(=O)c3ccc(COc4ccc(/C=C/S(=O)(=O)Nc5ccccc5)cc4)cc3)O[C@@H]3O[C@@]4(C)CC[C@@H]1[C@]32OO4 (stereo partly drawn) [Compound 6a, (E)-N-(2-(10β-Dihydroartemisinoxy)ethyl)-4((4-(2-(N-phenylsulfamoyl)vinyl)phenoxy)methyl)benzamide] | 2.26 | 0.98 | 6.47 | 5.28 | 3.21 | 2.41 | 20 | 142 to 145
10 | Cc1ccccc1NS(=O)(=O)/C=C/c1ccc(OCCOC2O[C@@H]3O[C@@]4(C)CC[C@H]5[C@H](C)CC[C@@H]([C@H]2C)[C@@]35OO4)cc1 (stereo partly drawn) [Compound 3e, (E)-2-(4-(2-(10β-Dihydroartemisinoxy)ethoxy)phenyl)-N-(2-methylphenyl)ethenesulfonamide] | 1.64 | 0.86 | 2.73 | 1.58 | 7.32 | 2.37 | 16.4 | 136 to 138
11 | C[C@@H]1CC[C@H]2[C@@H](C)C(OCCOc3ccc(/C=C/S(=O)(=O)Nc4cccc(Cl)c4)cc3)O[C@@H]3O[C@@]4(C)CC[C@@H]1[C@]32OO4 (stereo partly drawn) [Compound 3b, (E)-2-(4-(2-(10β-Dihydroartemisinoxy)ethoxy)phenyl)-N-(3-chlorophenyl)ethenesulfonamide] | 1.61 | 0.78 | 3.51 | 7.32 | 4.48 | 0.75 | 23.9 | 137 to 138
12 | C[C@@H]1CC[C@H]2[C@@H](C)C(OCCNC(=O)c3ccc(COc4ccc(/C=C/S(=O)(=O)Nc5ccccc5Cl)cc4)cc3)O[C@@H]3O[C@@]4(C)CC[C@@H]1[C@]32OO4 (stereo partly drawn) [Compound 6g, (E)-N-(2-(10β-Dihydroartemisinoxy)ethyl)-4((4-(2-(N-(2-chlorophenyl)sulfamoyl)vinyl)phenoxy)methyl)benzamide] | 0.72 | 0.45 | 2.69 | 0.89 | 5.31 | 0.27 | 27.2 | 147 to 150
